In paper PMC8504577, “Evaluation of a Clinically Relevant Drug–Drug Interaction Between Rosuvastatin and Clopidogrel and the Risk of Hepatotoxicity” (Frontiers in Pharmacology, 2021):
Read-outs that look alike come from different tables or passages of the source.

Columns and labels:
BCRP [1] = molecular target: T1, BCRP (Homo sapiens, UniProt Q9UNQ0); details: CP at 75 and 300 mg
T1 sequence (Q9UNQ0 1-655): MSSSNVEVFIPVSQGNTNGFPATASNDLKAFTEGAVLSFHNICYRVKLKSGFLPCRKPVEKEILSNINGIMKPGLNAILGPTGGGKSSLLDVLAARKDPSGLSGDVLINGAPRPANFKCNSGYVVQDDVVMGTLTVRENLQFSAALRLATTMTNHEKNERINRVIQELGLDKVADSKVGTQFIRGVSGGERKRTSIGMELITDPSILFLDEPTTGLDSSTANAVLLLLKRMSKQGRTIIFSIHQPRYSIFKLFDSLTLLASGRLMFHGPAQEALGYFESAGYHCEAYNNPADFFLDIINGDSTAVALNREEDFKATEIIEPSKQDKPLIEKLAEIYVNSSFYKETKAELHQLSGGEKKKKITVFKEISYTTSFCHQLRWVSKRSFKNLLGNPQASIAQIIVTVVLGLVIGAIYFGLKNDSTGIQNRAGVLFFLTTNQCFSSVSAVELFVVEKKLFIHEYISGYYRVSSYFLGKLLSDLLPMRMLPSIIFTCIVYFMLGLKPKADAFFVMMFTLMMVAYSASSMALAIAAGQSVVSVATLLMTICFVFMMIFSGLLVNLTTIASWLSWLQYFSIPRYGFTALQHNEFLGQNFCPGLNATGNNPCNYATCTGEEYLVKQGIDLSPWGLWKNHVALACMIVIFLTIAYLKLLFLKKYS

OATP1B1 [2] = details: cited from earlier work
BCRP [3] = molecular target: T1, BCRP; assay: Inhibition of RSV transport in BCRP-expressing membrane vesicles; assay type: biochemical; parameters: purchased GenoMembrane Co., Ltd. (Yokohama, Japan) GM0008; host or cells: Sf9 insect cells
Procedure: (§1) The vesicular transport activity was determined by the 96-well rapid filtration method in BCRP- and MRP2-expressing membrane vesicles. […] Meanwhile, 5 μL RSV (final concentration, 1 μM) and 20 μL reagent C2 were pre-incubated at 37°C for 5 min. Then, the transport was initiated by mixing them in a 50 μL reaction system and incubated for the designated time at 37°C. The transport was terminated by adding 200 μL of cold buffer B2 at 4°C. Then, the mixture was filtered using a 96-well filter plate. After washing the vesicles five times with 200 μL of cold buffer B2 at 4°C, the vesicles were lysed with 50 μL of 80% […] twice and then centrifuged at 2000 rpm/min for 2 min. Lysates were collected and then centrifuged at 12,000 rpm/min for 5 min. The supernatants were injected onto the LC-MS/MS. The same procedures were applied to AMP-containing samples except that reagent D2 was used instead of reagent C2. All experiments were performed in quadruplicate.
Statistical analysis was performed using SPSS ver. 22.0 (IBM, Chicago, IL, United States).

MRP2 = molecular target: T2, MRP2 (Homo sapiens, UniProt Q92887); assay: RSV uptake into MRP2-expressing membrane vesicles; assay type: biochemical; details: ATP vs AMP; data not shown
T2 construct: purchased GenoMembrane Co., Ltd. (Yokohama, Japan) GM0001
Procedure: as §1

[4] = Cytotoxicity (MTT, AST, LDH) in cryopreserved human hepatocytes; assay type: cell-based; details: human, cryopreserved primary human hepatocytes; 96 h incubation
Procedure: Cytotoxicity was determined with MTT assay in cryopreserved human hepatocytes. Thawing and plating of cryopreserved hepatocytes were carried out according to the manufacturer’s protocol. […] 11 μL of 5 mg/ml MTT was added to each well of the plate, and then the plate was incubated at 37°C for 3–4 h. After the medium was aspirated, 150 μL of DMSO was added to dissolve the formazan. The absorbance at 570 nm was measured and corrected for background absorption at 690 nm using a SpectraMax® i3 plate reader (Molecular Devices, Silicon Valley, CA, United States). AST and LDH levels in the medium of parallel processed plates were measured by commercially available assay kits. […] All experiments were performed in triplicate.

rats = assay: Biochemical examination of liver function indices in rats; assay type: in vivo, Sprague-Dawley rats; details: rat plasma
Excerpt: After the last sample in the plasma pharmacokinetic study, all rats were deeply anesthetized and exsanguinated by severing the abdominal aorta. Blood and liver samples were harvested. The plasma was used for the assay of alanine aminotransferase (ALT), aspartate aminotransferase (AST), total bilirubin (TBIL), unconjugated bilirubin (IBIL), and conjugated bilirubin (DBIL) by an automatic analyzer (Beckman Coulter, Brea, CA, United States).

OATP1B1 [5] = tested on: OATP1B1; parameters: method as in Elsby et al., 2016; details: ref Elsby et al., 2016; cited from earlier work
[6] = Group II single i.v. dose RSV + vehicle control
[7] = Group IV single p.o. dose RSV + vehicle control

T2 sequence (Q92887 whole entry): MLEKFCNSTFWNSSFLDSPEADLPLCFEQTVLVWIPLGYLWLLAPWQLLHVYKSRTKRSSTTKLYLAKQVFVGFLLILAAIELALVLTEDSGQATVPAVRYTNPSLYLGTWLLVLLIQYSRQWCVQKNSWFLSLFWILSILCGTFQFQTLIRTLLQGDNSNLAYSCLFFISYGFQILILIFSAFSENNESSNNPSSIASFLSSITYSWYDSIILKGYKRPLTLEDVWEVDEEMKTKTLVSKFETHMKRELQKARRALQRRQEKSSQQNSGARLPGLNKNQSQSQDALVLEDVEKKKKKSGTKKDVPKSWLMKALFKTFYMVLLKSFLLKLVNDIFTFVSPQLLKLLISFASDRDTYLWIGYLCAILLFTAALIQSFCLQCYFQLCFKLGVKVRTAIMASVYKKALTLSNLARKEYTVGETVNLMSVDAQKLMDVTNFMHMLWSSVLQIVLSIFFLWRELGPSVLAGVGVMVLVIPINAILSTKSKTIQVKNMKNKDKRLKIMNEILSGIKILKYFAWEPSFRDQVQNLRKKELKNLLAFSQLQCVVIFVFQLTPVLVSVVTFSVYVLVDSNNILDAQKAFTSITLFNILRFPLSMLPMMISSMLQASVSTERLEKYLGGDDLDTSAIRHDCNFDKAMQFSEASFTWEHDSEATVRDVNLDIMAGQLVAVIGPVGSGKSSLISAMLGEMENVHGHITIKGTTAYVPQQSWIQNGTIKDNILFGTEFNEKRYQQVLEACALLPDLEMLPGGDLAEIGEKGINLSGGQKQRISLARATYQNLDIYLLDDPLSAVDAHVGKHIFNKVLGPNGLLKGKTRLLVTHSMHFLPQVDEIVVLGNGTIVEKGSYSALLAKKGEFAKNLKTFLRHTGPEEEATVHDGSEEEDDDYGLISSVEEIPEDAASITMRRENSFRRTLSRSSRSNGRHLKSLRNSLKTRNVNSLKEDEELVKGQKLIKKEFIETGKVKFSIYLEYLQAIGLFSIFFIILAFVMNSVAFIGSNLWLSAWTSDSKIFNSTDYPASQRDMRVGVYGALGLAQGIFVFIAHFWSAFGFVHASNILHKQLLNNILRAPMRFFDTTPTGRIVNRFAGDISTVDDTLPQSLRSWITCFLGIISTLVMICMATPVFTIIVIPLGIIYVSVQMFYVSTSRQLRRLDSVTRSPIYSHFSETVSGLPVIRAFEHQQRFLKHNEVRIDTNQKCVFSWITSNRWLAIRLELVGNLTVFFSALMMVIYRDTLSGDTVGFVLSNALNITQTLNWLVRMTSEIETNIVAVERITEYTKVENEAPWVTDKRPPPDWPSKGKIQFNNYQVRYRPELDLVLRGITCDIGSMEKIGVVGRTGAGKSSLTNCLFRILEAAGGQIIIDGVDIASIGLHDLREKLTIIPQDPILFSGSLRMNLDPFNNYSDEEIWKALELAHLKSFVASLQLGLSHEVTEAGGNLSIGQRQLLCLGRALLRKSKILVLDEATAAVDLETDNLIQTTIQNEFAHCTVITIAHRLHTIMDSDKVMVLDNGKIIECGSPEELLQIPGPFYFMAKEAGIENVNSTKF

Q: Which “[I2]/IC50 BCRP ratio” value (BCRP [1]) does the source give for `COC(=O)[C@H](c1ccccc1Cl)N1CCc2sccc2C1` [CP, clopidogrel] here?
A: The value was over 10.

Q: And the IC50 (OATP1B1 [2]; substrate cerivastatin, ref Tamraz et al. (2013), read-out: IC50 OTAP1B1 (cerivastatin, CER, as substrate))?
A: The IC50 was 3950 nM.

Q: And the IC50 (OATP1B1 [2]; substrate estradiol 17β-glucuronide, ref Elsby et al. (2016), read-out: IC50 OTAP1B1 (estradiol 17β-glucuronide, e17βG, as substrate))?
A: Its IC50 is 1800 nM.

Q: What about the IC50 (BCRP [3]; IC50 BCRP-mediated RSV transport, 1 μM RSV, membrane vesicles) of the same compound?
A: The IC50 was about 1 nM.

Q: And the inhibition at 0.001 μM (BCRP [3]; human)?
A: The inhibition at 0.001 μM was 56.9%.

Q: Which “Uptake ratio into MRP2-expressing membrane vesicles” value (MRP2) does the source give for `CC(C)c1nc(N(C)S(C)(=O)=O)nc(-c2ccc(F)cc2)c1/C=C/[C@@H](O)C[C@@H](O)CC(=O)O` [RSV, rosuvastatin] here?
A: Its value is “less than 2”.

Q: What about the IC50 at 96 h [4] of the same compound?
A: Its IC50 at 96 h is 14.8 µM.

Q: And the ALT (rats; [6])?
A: The ALT was 54.00 ± 14.17 U/L.

Q: And the AST (rats; [6])?
A: Its AST is 210.50 ± 36.59 U/L.

Q: What about the DBIL (rats; [6]) of the same compound?
A: Its DBIL is 1.12 ± 0.11 µmol/L.

Q: And the IBIL (rats; [6])?
A: Its IBIL is 0.88 ± 0.18 µmol/L.

Q: And the TBIL (rats; [6])?
A: The TBIL was 2.00 ± 0.22 µmol/L.

Q: And the ALT (rats; [7])?
A: Its ALT is 52.00 ± 6.68 U/L.

Q: And the AST (rats; [7])?
A: Its AST is 212.50 ± 33.72 U/L.

Q: And the DBIL (rats; [7])?
A: The DBIL was 0.58 ± 0.33 µmol/L.

Q: What about the IBIL (rats; [7]) of the same compound?
A: Its IBIL is 0.57 ± 0.36 µmol/L.

Q: What about the TBIL (rats; [7]) of the same compound?
A: The TBIL was 1.13 ± 0.42 µmol/L.

Q: And the “Individual contribution of OATP1B1 to hepatic uptake” value (OATP1B1 [5])?
A: The value was 0.38.
